Laboratory results from patent US9302999B2, “Substituted triazoles as herbicides” (E. I. DU PONT DE NEMOURS AND COMPANY, priority 2012, dated 2016).

How the values were obtained:
Type in all cases: in vivo
[1] = system: barley, spring (spring barley, Hordeum vulgare); assay: Test D pre-/postemergence: barley, spring
Text: (§1) Seeds of plant species selected from bluegrass (annual bluegrass, Poa annua), blackgrass (Alopecurus myosuroides), canarygrass (Phalaris minor), chickweed (common chickweed, Stellaria media), galium (catchweed bedstraw, Galium aparine), bromegrass, downy (downy bromegrass, Bromus tectorum), field poppy (Papaver rhoeas), field violet (Viola arvensis), foxtail, green (green foxtail, Setaria viridis), deadnettle (henbit deadnettle, Lamium amplexicaule), ryegrass, Italian (Italian ryegrass, Lolium multiflorum), kochia (Kochia scoparia), lambsquarters (Chenopodium album), oilseed rape (Brassica napus), pigweed (Amaranthus retroflexus), Russian thistle (Salsola iberica), chamomile (scentless chamomile, Matricaria inodora), speedwell (bird's-eye speedwell, Veronica persica), barley, spring (spring barley, Hordeum vulgare), wheat, spring (spring wheat, Triticum aestivum), buckwheat, wild (wild buckwheat, Polygonum convolvulus), mustard, wild (wild mustard, Sinapis arvensis), oat, wild (wild oat, Avena fatua), radish, wild (wild radish, Raphanus raphanistrum), windgrass (Apera spica-venti), barley, winter (winter barley, Hordeum vulgare), and wheat, winter (winter wheat, Triticum aestivum) were planted into a silt loam soil and treated preemergence with test chemicals formulated in a non-phytotoxic solvent mixture which included a surfactant. At the same time, these same crop and weed species were planted in pots containing the planting medium comprising spaghnum peat moss, vermiculite, wetting agent and starter nutrients and treated with postemergence applications of the test chemicals formulated in the same manner. Plants ranged in height from 2 to 18 cm (1- to 4-leaf stage).
(§2) Treated plants and controls were maintained in a controlled growth environment for 14 to 21 days after which time all species were compared to controls and visually evaluated. Plant response ratings, summarized in Table D, are based on a scale of 0 to 100 where 0 is no effect and 100 is complete control. A dash (-) response means no test result.

[2] = system: Russian thistle (Salsola iberica); assay: Test D pre-/postemergence: Russian thistle
Text: as §1, §2

[3] = system: field poppy (Papaver rhoeas); assay: Test D pre-/postemergence: field poppy
Text: as §1, §2

[4] = system: woolly cupgrass (Eriochloa villosa); assay: Test C pre-/postemergence: woolly cupgrass
Text: (§3) Seeds of plant species selected from blackgrass (Alopecurus myosuroides), bromegrass, downy (downy bromegrass, Bromus tectorum), foxtail, green (green foxtail, Setaria viridis), ryegrass, Italian (Italian ryegrass, Lolium multiflorum), winter wheat (Triticum aestivum), wild oat (Avena fatua), galium (catchweed bedstraw, Galium aparine), bermudagrass (Cynodon dactylon), surinam grass (Brachiaria decumbens), cocklebur (common cocklebur, Xanthium strumarium), corn (Zea mays), large crabgrass (Digitaria sanguinalis), woolly cupgrass (Eriochloa villosa), foxtail, giant (giant foxtail, Setaria faberii), goosegrass (Eleusine indica), johnsongrass (Sorghum halepense), kochia (Kochia scoparia), lambsquarters (Chenopodium album), morningglory (Ipomoea coccinea), nightshade (eastern black nightshade, Solanum ptycanthum), nutsedge, yellow (yellow nutsedge, Cyperus esculentus), pigweed (Amaranthus retroflexus), ragweed (common ragweed, Ambrosia elation), soybean (Glycine max), common (oilseed) sunflower (Helianthus annuus), Russian thistle (Salsola kali) and velvetleaf (Abutilon theophrasti) were planted into a blend of loam soil and sand and treated preemergence with test chemicals formulated in a non-phytotoxic solvent mixture which included a surfactant.
(§4) At the same time, plants selected from these crop and weed species and also barley (winter barley, Hordeum vulgare), canarygrass (Phalaris minor), chickweed (common chickweed, Stellaria media) windgrass (Apera spica-venti) and deadnettle (henbit deadnettle, Lamium amplexicaule) were planted in pots containing Redi-Earth® planting medium (Scotts Company, 14111 Scottslawn Road, Marysville, Ohio 43041) comprising spaghnum peat moss, vermiculite, wetting agent and starter nutrients and treated with postemergence applications of test chemicals formulated in the same manner. Plants ranged in height from 2 to 18 cm (1- to 4-leaf stage) for postemergence treatments.
(§5) Treated plants and controls were maintained in a greenhouse for 13 to 15 days, after which time all species were compared to controls and visually evaluated. Plant response ratings, summarized in Table C, are based on a scale of 0 to 100 where 0 is no effect and 100 is complete control. A dash (-) response means no test result.

[5] = system: foxtail, green (green foxtail, Setaria viridis); assay: Test C pre-/postemergence: foxtail, green
Text: as §3, §4, §5

[6] = system: deadnettle (henbit deadnettle, Lamium amplexicaule); assay: Test D pre-/postemergence: deadnettle
Text: as §1, §2

[7] = system: blackgrass (Alopecurus myosuroides); assay: Test D pre-/postemergence: blackgrass
Text: as §1, §2

[8] = Postemergence, 31 g ai/ha, scale 0 to 100 (0 no effect, 100 complete control)
[9] = Postemergence, 62 g ai/ha, scale 0 to 100 (0 no effect, 100 complete control)
[10] = Postemergence, 125 g ai/ha, scale 0 to 100, 0 no effect, 100 complete control
[11] = Postemergence, 250 g ai/ha, scale 0 to 100 (0 no effect, 100 complete control)
[12] = Postemergence, 16 g ai/ha, scale 0 to 100
[13] = Preemergence, 16 g ai/ha, scale 0 to 100 (0 no effect, 100 complete control)
[14] = Preemergence, 31 g ai/ha, scale 0 to 100 (0 no effect, 100 complete control)
[15] = Preemergence, 62 g ai/ha, scale 0 to 100
[16] = Preemergence, 125 g ai/ha, scale 0 to 100
[17] = Preemergence, 250 g ai/ha, scale 0 to 100
[18] = Postemergence, 250 g ai/ha, scale 0 to 100
[19] = Preemergence, 31 g ai/ha, scale of 0 to 100, 0 is no effect, 100 is complete control
[20] = Preemergence, 62 g ai/ha, scale of 0 to 100, 0 is no effect, 100 is complete control
[21] = Preemergence, 125 g ai/ha, scale 0 to 100, 0 no effect, 100 complete control
[22] = Preemergence, 250 g ai/ha, scale 0 to 100, 0 no effect, 100 complete control
[23] = Postemergence, 16 g ai/ha, scale 0 to 100, 0 no effect, 100 complete control

SMILES: Cc1nn(-c2ccc(F)cc2)nc1Cc1ccnc(C(F)(F)F)c1 [Compound 16, 4-[[2-(4-fluorophenyl)-5-methyl-2H-1,2,3-triazol-4-yl]methyl]-2-(trifluoromethyl)pyridine]
- Plant response rating: Barley, Spring [1, 8]: 15
- Plant response rating: Barley, Spring [1, 9]: 15
- Plant response rating: Barley, Spring [1, 10]: 20
- Plant response rating: Barley, Spring [1, 11]: 35
- Plant response rating, Barley, Spring [1, 12]: 5
- Plant response rating, Barley, Spring [1, 13]: 0
- Plant response rating, Barley, Spring [1, 14]: 0
- Plant response rating, Barley, Spring [1, 15]: 5
- Plant response rating, Barley, Spring [1, 16]: 5
- Plant response rating, Barley, Spring [1, 17]: 5
- Plant response rating: Russian Thistle [2, 8]: 95
- Plant response rating: Russian Thistle [2, 9]: 100
- Plant response rating: Russian Thistle [2, 10]: 100
- Plant response rating: Russian Thistle [2, 11]: 100
- Plant response rating, Russian Thistle [2, 12]: 90
- Plant response rating, Russian Thistle [2, 13]: 0
- Plant response rating, Russian Thistle [2, 14]: 35
- Plant response rating, Russian Thistle [2, 15]: 40
- Plant response rating, Russian Thistle [2, 17]: 90
- Plant response rating: Field Poppy [3, 8]: 100
- Plant response rating: Field Poppy [3, 9]: 100
- Plant response rating: Field Poppy [3, 10]: 100
- Plant response rating: Field Poppy [3, 11]: 100
- Plant response rating, Field Poppy [3, 12]: 0
- Plant response rating, Field Poppy [3, 13]: 100
- Plant response rating, Field Poppy [3, 14]: 100
- Plant response rating, Field Poppy [3, 15]: 100
- Plant response rating, Field Poppy [3, 16]: 100
- Plant response rating, Field Poppy [3, 17]: 100
- Plant response rating, Cupgrass, Woolly [4, 8]: 5
- Plant response rating, Cupgrass, Woolly [4, 9]: 20
- Plant response rating, Cupgrass, Woolly [4, 10]: 65
- Plant response rating, Cupgrass, Woolly [4, 18]: 75
- Plant response rating, Foxtail, Green [5, 8]: 30
- Plant response rating, Foxtail, Green [5, 9]: 98
- Plant response rating, Foxtail, Green [5, 10]: 98
- Plant response rating, Foxtail, Green [5, 19]: 100
- Plant response rating, Foxtail, Green [5, 20]: 100
- Plant response rating, Foxtail, Green [5, 21]: 100
- Plant response rating, Foxtail, Green [5, 22]: 100
- Plant response rating: Deadnettle [6, 8]: 25
- Plant response rating: Deadnettle [6, 9]: 45
- Plant response rating: Deadnettle [6, 10]: 50
- Plant response rating: Deadnettle [6, 11]: 90
- Plant response rating, Deadnettle [6, 12]: 10
- Plant response rating, Deadnettle [6, 13]: 0
- Plant response rating, Deadnettle [6, 14]: 40
- Plant response rating, Deadnettle [6, 15]: 60
- Plant response rating, Deadnettle [6, 16]: 100
- Plant response rating, Deadnettle [6, 17]: 100
- Plant response rating: Blackgrass [7, 8]: 10
- Plant response rating: Blackgrass [7, 9]: 20
- Plant response rating: Blackgrass [7, 10]: 25
- Plant response rating: Blackgrass [7, 11]: 40
- Plant response rating, Blackgrass [7, 12]: 5
- Plant response rating, Blackgrass [7, 13]: 0
- Plant response rating, Blackgrass [7, 14]: 0
- Plant response rating, Blackgrass [7, 15]: 40
- Plant response rating, Blackgrass [7, 16]: 70
- Plant response rating, Blackgrass [7, 17]: 100

SMILES: Cc1nn(-c2ccc(C(F)(F)F)cc2)nc1Cc1cccc(C(F)(F)F)c1 [Compound 124]
- Plant response rating, Cupgrass, Woolly [4, 23]: 5
- Plant response rating, Cupgrass, Woolly [4, 8]: 5
- Plant response rating, Cupgrass, Woolly [4, 9]: 10
- Plant response rating, Cupgrass, Woolly [4, 10]: 20
- Plant response rating, Foxtail, Green [5, 23]: 65
- Plant response rating, Foxtail, Green [5, 8]: 70
- Plant response rating, Foxtail, Green [5, 9]: 90
- Plant response rating, Foxtail, Green [5, 10]: 95

SMILES: Cc1nn(-c2ccc(C(F)(F)F)cc2)nc1Cc1ccnc(C(F)(F)F)c1 [Compound 47, 4-[[5-methyl-2-[4-(trifluoromethyl)phenyl]-2H-1,2,3-triazol-4-yl]methyl]-2-(trifluoromethyl)pyridine]
- Plant response rating, Cupgrass, Woolly [4, 8]: 55
- Plant response rating, Cupgrass, Woolly [4, 9]: 65
- Plant response rating, Cupgrass, Woolly [4, 10]: 80
- Plant response rating, Cupgrass, Woolly [4, 18]: 90
- Plant response rating, Cupgrass, Woolly [4, 19]: 45
- Plant response rating, Cupgrass, Woolly [4, 20]: 80
- Plant response rating, Cupgrass, Woolly [4, 21]: 95
- Plant response rating, Cupgrass, Woolly [4, 22]: 98
- Plant response rating, Foxtail, Green [5, 8]: 20
- Plant response rating, Foxtail, Green [5, 9]: 98
- Plant response rating, Foxtail, Green [5, 10]: 100
- Plant response rating, Foxtail, Green [5, 18]: 100
- Plant response rating, Foxtail, Green [5, 19]: 100
- Plant response rating, Foxtail, Green [5, 20]: 100
- Plant response rating, Foxtail, Green [5, 21]: 100
- Plant response rating, Foxtail, Green [5, 22]: 100
